Structures are written as SMILES. ≈ marks a conversion by molar mass, not a printed value.

Here are results for one molecule from US20070254332A1, “Method for Readily Detecting Class C Beta-Lactamase-Producing Bacteria” (JAPAN HEALTH SCIENCES FOUNDATION, priority 2003, published 2007).

What all share (assay type): cell-based
The test system of experiment [1] is Klebsiella pneumoniae HKY402 (SHV-12: Class A). Description: MIC by trace quantity liquid dilution method.
The test system of experiment [2] is Klebsiella pneumoniae KP1 15 (IMP-1: Class B). Description: MIC by trace quantity liquid dilution method.
The subject of experiment [3] is C. freundii HKY543. Description: MIC by trace quantity liquid dilution method. The following applies: Citrobacter freundii. Here is the method: (§1) Following overnight culturing, the MIC was measured.
The subject of experiment [4] is E. cloacae HKY226. Description: MIC by trace quantity liquid dilution method. The note with it: Enterobacter cloacae. Here is the method: as §1
Experiment [5] concerns E. coli NS12 CMY-2. As to the kind of experiment: MIC by trace quantity liquid dilution method. The note with it: Escherichia coli, NS12CMY2. Here is the method:
as §1

Experiment [6] concerns K. pneumoniae NCB02189 DHA-1 + CTX-M9. Description: MIC by trace quantity liquid dilution method. The following applies: Klebsiella pneumoniae. As to the method: as §1
The subject of experiment [7] is Klebsiella pneumoniae NU2936 (MOX-1: Class C). As to the kind of experiment: MIC by trace quantity liquid dilution method. As to the method:
as §1

Experiment [8] relates to P. aeruginosa NCB03-192. Description: MIC by trace quantity liquid dilution method. The following applies: Pseudomonas aeruginosa, NCB03192. Here is the method:
as §1

Experiment [9] relates to S. marcescens S94. As to the kind of experiment: MIC by trace quantity liquid dilution method. The following applies: Serratia marcescens. Here is the method: as §1
Experiment [10] has as its system E. cloacae HKY226. Description: Disk test, CAZ disk versus CAZ + APB disk (second aspect). The following applies: overnight culturing.
Procedure: (§2) In the same manner as in Embodiment 1, the test bacterium was inoculated onto a Mueller-Hinton agar medium, and KB disks (6 mm in diameter) of CAZ were positioned at least 3 cm apart center-on-center. […] After overnight culturing, the diameters of the growth inhibitory zones around the two CAZ disks were measured.
The subject of experiment [11] is C. freundi HKY543. The description is as above. The following applies: overnight culturing.
Procedure: as §2
The test system of experiment [12] is K. pneumoniae SHV-12 Class A. The description is as above. The following applies: overnight culturing.
Procedure: as §2

A word on the MIC: it is the smallest concentration in the dilution series that meets the test's criterion for growth inhibition. For `CC(C)(O/N=C(\C(=O)N[C@@H]1C(=O)N2C(C(=O)[O-])=C(C[n+]3ccccc3)CS[C@H]12)c1csc(N)n1)C(=O)O` [CAZ, ceftazidime], the minimum inhibitory concentration (MIC) in experiment [1] is above 512 µg/mL; in experiment [2], 256 µg/mL (≈ 468 µM); in experiment [3] it was 64 µg/mL (≈ 117 µM); in experiment [4] it was 256 µg/mL (≈ 468 µM); in experiment [5], 64 µg/mL (≈ 117 µM); in experiment [6], 64 µg/mL (≈ 117 µM). Also, the MIC was determined as 64 µg/mL (≈ 117 µM) in [7], 16 µg/mL (≈ 29.3 µM) in experiment [8] and 64 µg/mL (≈ 117 µM) in experiment [9]. For the same molecule, the “Inhibitory zone around the disk” value in [10] is on record as “No inhibitory zone was observed around”; in [11] it was “A small inhibitory zone was observed”; in [12], “No inhibitory zones observed around”.
